This is an account of results in patent publication US11180486B2, “Indolylkojyl methane analogues, process of preparation thereof and use as inhibitor of cancer cells invasion and metastasis” (Council of Scientific & Industrial Research, priority 2017, dated 2021).

Data set [1] concerns MCF7 cells. Nature of the data set: Cell viability (MTT) assay. It is filed as cell-based. As to conditions: Homo sapiens, MCF7, 48 h, 44 h + 4 h, mean ± SD of three experiments, read-out: IC50 values MCF7. On the procedure:
(§1) Cell Culture and Reagents. The cell lines used in this study were procured from American Type Culture Collection (ATCC), Manassas, USA. MCF7, T47D and fR2 cells were cultured in RPMI-1640 medium, whereas the MDA-MB-231 cells were grown in Leibovitz's (L-15) medium supplemented with 10% fetal bovine serum (Gibco) and 1% penicillin/streptomycin (Sigma) in a humidified CO2 incubator (New Brunswick Galaxy 170 R) with 5% CO2. Reagents such as phenylmethylsulfonyl fluoride (PMSF), dithiothreitol (DTT), DMSO, crystal violet, and Bradford's reagent were purchased from Sigma-Aldrich. Protease inhibitor cocktail was procured from Roche. The antibodies for human GRP78, Par-4, MMP-2, MMP-9, NF-kB, E-cadherin and TIMP-1 were procured from Santa-Cruz Biotechnology. The β-actin antibody and the secondary antibodies such as anti-rabbit IgG and anti-mouse IgG were procured from Sigma-Aldrich.
(§2) Cell Viability Assay. The cell viability was determined by standard MTT assay method. Briefly, MDA-MB-231, MCF7, T47D and fR2 cells were seeded in 96 well tissue culture plates (Nunc) at a density of 3×10^3 cells per well and treated with varying concentrations of the test compounds in triplicates. DMSO was taken as a vehicle and the final concentration of the DMSO was maintained at 0.2% in the culture medium. Doxorubicin was employed as a positive control. After 44 h of incubation, MTT dye solution was added into the medium and cells were incubated for another 4 h at 37° C. in 5% CO2. The amount of coloured formazan derivatives formed was measured by taking optical density (OD) using a microplate reader (TECAN, Infinite M200 Pro) at 570 nm and the percentage cell viability was calculated. The IC50 values were calculated using GraphPad Prism software (Version 5.0). Table 2. Cytotoxicity (IC50) of all synthesized compounds of invention against panel of human breast cancer cell lines (MDA-MB-231, MCF7, T47D) and normal breast epithelial (fR2) cells.

The test system of data set [2] is MDA-MB-231 cells. Nature of the data set: Cell viability (MTT) assay. The note with it: Homo sapiens, MDA-MB-231, 48 h, 44 h + 4 h, mean ± SD of three experiments, read-out: IC50 values MDA-MB-231. It is filed as cell-based. On the procedure: as §1, §2
Data set [3] concerns T47D cells. The experiment in a line: Cell viability (MTT) assay. As to conditions: Homo sapiens, 48 h, 44 h + 4 h, mean ± SD of three experiments. The format is cell-based. On the procedure: as §1, §2
The subject of data set [4] is mouse mammary carcinoma (4T1) cells. The format is in vivo. As to conditions: 100 mg/kg b.w. i.p., alternate days for two weeks. On the procedure: In Vivo Anti-Tumor and Anti-Metastatic Efficacy Studies. To evaluate the antitumor and antimetastatic effect of 5 in vivo, healthy female Balb/c mice (b.w. 18-23 g) were taken. The experimental protocols were approved by the Institutional Animal Ethics Committee, CPCSEA, of Indian Institute of Integrative Medicine, Jammu. The animals were maintained at 22° C. with a 12 h light-dark cycle and free access to feed and water inside the institutional animal house. Proper care was taken to maintain them in a healthy condition and to avoid any risk of possible pathogenic contaminations. For subcutaneous implantation, the mice were randomized into two groups of 5 mice per group and 1.5 million mouse mammary carcinoma (4T1) cells in serum free RPMI media were injected subcutaneously into the mammary fat pad of each mouse. Either 1 week after the tumor cell implantation or when the tumor volume reached ˜150 mm^3, mice were injected intraperitoneally with either normal saline (NS) or parent compound 1 (100 mg/kg, b.w.) or 5 (30 mg/kg, b.w.) in each alternate days for two weeks. Tumor size was recorded on each alternate days post-cell injection and body weights were recorded once per week. Mice were sacrificed on the 15th day of treatment initiation and tumors were incised for its measurement. Metastatic lung nodules were counted using a dissecting microscope. Lungs were then minced into fine pieces, suspended in medium containing collagenase and kept in 37° C. incubator with vigorous shaking for 2 h. The suspension was then filtered with the help of 70 μm cell strainer (BD, USA) to get the single cell suspension. Then, the suspension was serially diluted for 3-4 times in selection medium containing 6-thioguanine, for the selection of 4T1 cells. Each dilution containing the lung cell suspension was then plated into individual petridishes and incubated at 37° C. and 5% CO2 for the growing of 4T1 cell colonies. After 15 days of incubation, cells were washed with PBS, fixed with methanol and stained with 0.2% crystal violet solution for 1 h. Images of the 4T1 colonies were observed, counted and photographed under an inverted microscope at 20× magnification.

Structures are written as SMILES.

For the molecule `O=c1cc(CO)occ1O` [Compound 1, 5-Hydroxy-2-(hydroxymethyl)-4H-pyran-4-one, reference compound], the results for the IC50 in data set [1], in data set [2] and in data set [3] were 94.5 ± 2.68 µM, 87.2 ± 1.52 µM and greater than 100 µM, respectively. Moreover, the “decrease in metastatic lung nodules” value in data set [4] was found to be 16.7%. In addition, the “inhibition in tumor growth” value in data set [4] (vs normal saline) is 23%.

In the case of `CCCC(c1oc(CO)cc(=O)c1O)c1c[nH]c2ccccc12` (stereo not shown) [Compound 2, 2-(1-(1H-indol-3-yl)butyl)-3-hydroxy-6-(hydroxymethyl)-4H-pyran-4-one], the melting point lay within 130 to 140 °C. In data set [1], the IC50 amounted to 45.2 ± 0.348 µM. Also, the IC50 in data set [2] amounted to 43.25 ± 0.416 µM. In addition, the IC50 in data set [3] was found to be 43 ± 0.144 µM.

With `CCCCCC(c1oc(CO)cc(=O)c1O)c1c[nH]c2ccccc12` (stereo not shown) [Compound 3, 2-{1-(1H-indol-3-yl)hexyll}-3-hydroxy-6-(hydroxymethyl)-4H-pyran-4-one], the melting point lay in the range of 120 to 130 °C. Also, the IC50 in data set [1] was greater than 100 µM. In addition, the concentration for half-maximal inhibition (IC50) in data set [2] is 40.6 ± 0.621 µM. The IC50 in data set [3] came to 43.5 ± 0.203 µM.

The molecule `CCCCCCC(c1oc(CO)cc(=O)c1O)c1c[nH]c2ccccc12` (stereo not shown) [Compound 4, 2-(1-(1H-indol-3-yl)heptyl)-3-hydroxy-6-(hydroxymethyl)-4H-pyran-4-one] returned a melting point of 115 to 125 °C. In addition, the half-inhibitory concentration (IC50) in data set [1] was 3.93 ± 0.288 µM. Further, in data set [2], the IC50 came out at 3.84 ± 0.055 µM. The IC50 in data set [3] amounted to 4.3 ± 0.443 µM.

On to `CCCCCCCCCC(c1oc(CO)cc(=O)c1O)c1c[nH]c2ccccc12` (stereo not shown) [Compound 6], for which the melting point fell in the range of 110 to 120 °C. The IC50 in data set [1] was greater than 100 µM. In data set [2], the IC50 was determined as 40.6 ± 0.621 µM. For the same molecule, the IC50 in data set [3] was greater than 100 µM.

`CCCCCCCCCCC(c1oc(CO)cc(=O)c1O)c1c[nH]c2ccccc12` (stereo not shown) [Compound 7, 2-{1-(1H-indol-3-yl)undecyl}-3-hydroxy-6-(hydroxymethyl)-4H-pyran-4-one] showed a melting point of 110 to 120 °C. Besides, the 50% inhibitory concentration (IC50) in data set [1] was greater than 100 µM. Further, in data set [2], the IC50 is 49.5 ± 0.448 µM. In data set [3], the IC50 is greater than 100 µM.

As to `CCCCCCCCCCCC(c1oc(CO)cc(=O)c1O)c1c[nH]c2ccccc12` (stereo not shown) [Compound 8, 2-{1-(1H-indol-3-yl)dodecyl}-3-hydroxy-6-(hydroxymethyl)-4H-pyran-4-one], the melting point lay in the range of 105 to 115 °C. In addition, in data set [1], the half-maximal inhibitory concentration (IC50) is greater than 100 µM. Further, the IC50 in data set [2] was 45.2 ± 0.535 µM. The IC50 in data set [3] is greater than 100 µM.

`CCCCCCCCCCCCCCCC(c1oc(CO)cc(=O)c1O)c1c[nH]c2ccccc12` (stereo not shown) [Compound 9, 2-{1-(1H-indol-3-yl)hexadecyl}-3-hydroxy-6-(hydroxymethyl)-4H-pyran-4-one] gave a melting point of 95 to 105 °C. Moreover, the concentration for half-maximal inhibition (IC50) in data set [1] was greater than 100 µM. The half-inhibitory concentration (IC50) in data set [2] was determined as 45.7 ± 0.195 µM. Further, the IC50 in data set [3] is greater than 100 µM.

The molecule `CCCCCCCCCCCCCCCCCC(c1oc(CO)cc(=O)c1O)c1c[nH]c2ccccc12` (stereo not shown) [Compound 10, 2-{1-(1H-indol-3-yl)octadecyl}-3-hydroxy-6-(hydroxymethyl)-4H-pyran-4-one] yielded a melting point of 90 to 100 °C. Also, in data set [1], the IC50 is greater than 100 µM. Moreover, the IC50 in data set [2] was 48.5 ± 0.341 µM. In data set [3], the IC50 was greater than 100 µM.

For `COc1cccc2c1C(=O)c1c(O)c3c(c(O)c1C2=O)C[C@@](O)(C(=O)CO)C[C@@H]3O[C@H]1C[C@H](N)[C@H](O)[C@H](C)O1` [DOXO, doxorubicin, reference compound], the results for the half-inhibitory concentration (IC50) in data set [1], in data set [2] and in data set [3] were 0.085 ± 0.125 µM, 0.22 ± 0.185 µM and 0.081 ± 0.211 µM, respectively.
